Measured values published in US20260207606A1, “DOSING SCHEDULE OF A SOLID DISPERSION OF A HER2 INHIBITOR” (Boehringer Ingelheim International GmbH, priority 2022, published 2026).

Experiments:
[1] = Phase Ia dose escalation trial: pharmacokinetics, plasma exposure; type: in vivo; settings: increasing doses, BID and QD
Protocol: Pharmacokinetic (PK) profiles of compound (1) are investigated after the first and after repeated doses. Standard PK parameters are calculated, if data allows and if scientifically reasonable. […] Statistical analyses are performed.
If deemed necessary, further PK parameters might be used for these assessments.
Preliminary PK analyses can be performed as necessary for DEC decisions. The final preliminary analysis are performed at the end of the dose escalation part prior to proceeding to the dose expansion part. In contrast to the final PK analysis, the preliminary analyses are based on planned sampling times rather than on actual times; no supplementary patient information, e.g. on AEs or concomitant medication, is used in these analyses, and the outputs are not validated. Minor discrepancies between preliminary and final results may therefore occur.

NSCLC = test: Phase Ia dose escalation trial: tumour response according to RECIST v1.1 in NSCLC patients; type: in vivo, human; settings: for Best overall response (RECIST 1.1): Complete response, % / Best overall response (RECIST 1.1): Non-CR/Non-PD, % / Best overall response (RECIST 1.1): Not evaluable, % / Best overall response (RECIST 1.1): Partial response, % / Best overall response (RECIST 1.1): Progressive disease, % / Best overall response (RECIST 1.1): Stable disease, %: regardless of confirmation, data lock 16 Mar. 2023
Source text: Tumour assessments should include computed tomography (CT) scans of the chest, abdomen/pelvis (or PET/CT) and a brain MRI at screening. If clinically indicated, imaging of any other known or suspected sites of disease (e.g. bone) using an appropriate method (CT scan, MRI, PET/CT, or bone scan) should be performed. The same radiographic procedure must be used throughout the trial. Assessments will be performed by the investigator at screening (≤28 days prior to initiation of treatment), every 2 cycles (6 weeks ±5 days), at the end-of-treatment (EOT) visit (if not performed within the previous 3 weeks), and at the discretion of the investigator, and copies may be collected by the sponsor or designee. Wherever possible the assessment schedule should not be changed, but if there is an interruption or delay to treatment, alteration of the tumour assessment schedule to align with clinical assessments is allowed. Additional unscheduled tumour assessments may be performed at the discretion of the investigator. If the patient stops trial medication for a reason other than progression, tumour assessment according to RECIST v1.1 continues until progression (or until one of the following occurs; death, lost to follow-up, end of the trial).
Tumour response is evaluated according to RECIST Version 1.1 (Eisenhauer E A, Therasse P, Bogaerts J, Schwartz L H, Sargent D, Ford R, et al. New response evaluation criteria in solid tumours: revised RECIST guideline (version 1.1). Eur J Cancer. 2009; 45:228-247). RECIST 1.1 is used for a) whole-body assessment (classical RECIST 1.1) and b) the tumour assessment of non-CNS areas. The assessment according to classical RECIST 1.1 by the investigator and/or the local radiologist is the basis for continuation or discontinuation of the trial in an individual patient (in addition to safety). No whole-body RECIST assessment is performed in the dose escalation part.

[2] = 5 NSCLC patients pre-treated with trastuzumab deruxtecan, data cut-off 17 Jul. 2023

Compound: C=CC(=O)NC1CCN(c2ncc3ncnc(Nc4ccc(Oc5ccc6c(c5)ncn6C)c(C)c4)c3n2)CC1 [compound (1), N-{1-[8-({3-methyl-4-[(1-methyl-1H-1,3-benzodiazol-5-yl)oxy]phenyl}amino)-[1,3]diazino[5,4-d]pyrimidin-2-yl]piperidin-4-yl}prop-2-enamide]
- dose proportionality of plasma exposure [1]: no apparent deviation from dose proportional pharmacokinetics
- Best overall response (RECIST 1.1): Complete response, % (NSCLC; 15 mg BID, 1 NSCLC patients): 0.0%
- Best overall response (RECIST 1.1): Non-CR/Non-PD, % (NSCLC; 15 mg BID, 1 NSCLC patients): 0.0%
- Best overall response (RECIST 1.1): Not evaluable, % (NSCLC; 15 mg BID, 1 NSCLC patients): 0.0%
- Best overall response (RECIST 1.1): Partial response, % (NSCLC; 15 mg BID, 1 NSCLC patients): 0.0%
- Best overall response (RECIST 1.1): Progressive disease, % (NSCLC; 15 mg BID, 1 NSCLC patients): 0.0%
- Best overall response (RECIST 1.1): Stable disease, % (NSCLC; 15 mg BID, 1 NSCLC patients): 100.0%
- Best overall response (RECIST 1.1): Complete response, % (NSCLC; 30 mg BID, 2 NSCLC patients): 0.0%
- Best overall response (RECIST 1.1): Non-CR/Non-PD, % (NSCLC; 30 mg BID, 2 NSCLC patients): 0.0%
- Best overall response (RECIST 1.1): Not evaluable, % (NSCLC; 30 mg BID, 2 NSCLC patients): 0.0%
- Best overall response (RECIST 1.1): Partial response, % (NSCLC; 30 mg BID, 2 NSCLC patients): 50.0%
- Best overall response (RECIST 1.1): Progressive disease, % (NSCLC; 30 mg BID, 2 NSCLC patients): 0.0%
- Best overall response (RECIST 1.1): Stable disease, % (NSCLC; 30 mg BID, 2 NSCLC patients): 50.0%
- Best overall response (RECIST 1.1): Complete response, % (NSCLC; 60 mg BID, 3 NSCLC patients): 0.0%
- Best overall response (RECIST 1.1): Non-CR/Non-PD, % (NSCLC; 60 mg BID, 3 NSCLC patients): 0.0%
- Best overall response (RECIST 1.1): Not evaluable, % (NSCLC; 60 mg BID, 3 NSCLC patients): 0.0%
- Best overall response (RECIST 1.1): Partial response, % (NSCLC; 60 mg BID, 3 NSCLC patients): 66.7%
- Best overall response (RECIST 1.1): Progressive disease, % (NSCLC; 60 mg BID, 3 NSCLC patients): 0.0%
- Best overall response (RECIST 1.1): Stable disease, % (NSCLC; 60 mg BID, 3 NSCLC patients): 33.3%
- Best overall response (RECIST 1.1): Complete response, % (NSCLC; 60 mg QD, 2 NSCLC patients): 0.0%
- Best overall response (RECIST 1.1): Non-CR/Non-PD, % (NSCLC; 60 mg QD, 2 NSCLC patients): 0.0%
- Best overall response (RECIST 1.1): Not evaluable, % (NSCLC; 60 mg QD, 2 NSCLC patients): 0.0%
- Best overall response (RECIST 1.1): Partial response, % (NSCLC; 60 mg QD, 2 NSCLC patients): 50.0%
- Best overall response (RECIST 1.1): Progressive disease, % (NSCLC; 60 mg QD, 2 NSCLC patients): 0.0%
- Best overall response (RECIST 1.1): Stable disease, % (NSCLC; 60 mg QD, 2 NSCLC patients): 50.0%
- Best overall response (RECIST 1.1): Complete response, % (NSCLC; 100 mg BID, 3 NSCLC patients): 0.0%
- Best overall response (RECIST 1.1): Non-CR/Non-PD, % (NSCLC; 100 mg BID, 3 NSCLC patients): 0.0%
- Best overall response (RECIST 1.1): Not evaluable, % (NSCLC; 100 mg BID, 3 NSCLC patients): 0.0%
- Best overall response (RECIST 1.1): Partial response, % (NSCLC; 100 mg BID, 3 NSCLC patients): 33.0%
- Best overall response (RECIST 1.1): Progressive disease, % (NSCLC; 100 mg BID, 3 NSCLC patients): 0.0%
- Best overall response (RECIST 1.1): Stable disease, % (NSCLC; 100 mg BID, 3 NSCLC patients): 66.7%
- Best overall response (RECIST 1.1): Complete response, % (NSCLC; 120 mg QD, 4 NSCLC patients): 0.0%
- Best overall response (RECIST 1.1): Non-CR/Non-PD, % (NSCLC; 120 mg QD, 4 NSCLC patients): 0.0%
- Best overall response (RECIST 1.1): Not evaluable, % (NSCLC; 120 mg QD, 4 NSCLC patients): 0.0%
- Best overall response (RECIST 1.1): Partial response, % (NSCLC; 120 mg QD, 4 NSCLC patients): 50.0%
- Best overall response (RECIST 1.1): Progressive disease, % (NSCLC; 120 mg QD, 4 NSCLC patients): 25.0%
- Best overall response (RECIST 1.1): Stable disease, % (NSCLC; 120 mg QD, 4 NSCLC patients): 25.0%
- Best overall response (RECIST 1.1): Complete response, % (NSCLC; 150 mg BID, 2 NSCLC patients): 0.0%
- Best overall response (RECIST 1.1): Non-CR/Non-PD, % (NSCLC; 150 mg BID, 2 NSCLC patients): 0.0%
- Best overall response (RECIST 1.1): Not evaluable, % (NSCLC; 150 mg BID, 2 NSCLC patients): 0.0%
- Best overall response (RECIST 1.1): Partial response, % (NSCLC; 150 mg BID, 2 NSCLC patients): 50.0%
- Best overall response (RECIST 1.1): Progressive disease, % (NSCLC; 150 mg BID, 2 NSCLC patients): 0.0%
- Best overall response (RECIST 1.1): Stable disease, % (NSCLC; 150 mg BID, 2 NSCLC patients): 50.0%
- Best overall response (RECIST 1.1): Complete response, % (NSCLC; 180 mg QD, 5 NSCLC patients): 0.0%
- Best overall response (RECIST 1.1): Non-CR/Non-PD, % (NSCLC; 180 mg QD, 5 NSCLC patients): 0.0%
- Best overall response (RECIST 1.1): Not evaluable, % (NSCLC; 180 mg QD, 5 NSCLC patients): 20.0%
- Best overall response (RECIST 1.1): Partial response, % (NSCLC; 180 mg QD, 5 NSCLC patients): 20.0%
- Best overall response (RECIST 1.1): Progressive disease, % (NSCLC; 180 mg QD, 5 NSCLC patients): 0.0%
- Best overall response (RECIST 1.1): Stable disease, % (NSCLC; 180 mg QD, 5 NSCLC patients): 60.0%
- Best overall response (RECIST 1.1): Complete response, % (NSCLC; 240 mg QD, 5 NSCLC patients): 0.0%
- Best overall response (RECIST 1.1): Non-CR/Non-PD, % (NSCLC; 240 mg QD, 5 NSCLC patients): 0.0%
- Best overall response (RECIST 1.1): Not evaluable, % (NSCLC; 240 mg QD, 5 NSCLC patients): 60.0%
- Best overall response (RECIST 1.1): Partial response, % (NSCLC; 240 mg QD, 5 NSCLC patients): 40.0%
- Best overall response (RECIST 1.1): Progressive disease, % (NSCLC; 240 mg QD, 5 NSCLC patients): 0.0%
- Best overall response (RECIST 1.1): Stable disease, % (NSCLC; 240 mg QD, 5 NSCLC patients): 0.0%
- Best overall response (RECIST 1.1): Complete response, % (NSCLC; 300 mg QD, 5 NSCLC patients): 0.0%
- Best overall response (RECIST 1.1): Non-CR/Non-PD, % (NSCLC; 300 mg QD, 5 NSCLC patients): 0.0%
- Best overall response (RECIST 1.1): Not evaluable, % (NSCLC; 300 mg QD, 5 NSCLC patients): 80.0%
- Best overall response (RECIST 1.1): Partial response, % (NSCLC; 300 mg QD, 5 NSCLC patients): 0.0%
- Best overall response (RECIST 1.1): Progressive disease, % (NSCLC; 300 mg QD, 5 NSCLC patients): 0.0%
- Best overall response (RECIST 1.1): Stable disease, % (NSCLC; 300 mg QD, 5 NSCLC patients): 20.0%
- tumour shrinkage, mean (NSCLC; [2]): −22.5%
- tumour shrinkage, median (NSCLC; [2]): −16.1%
- tumour shrinkage, up to (NSCLC; [2]): −53%
- Best overall response (RECIST 1.1): Complete response, % (NSCLC; BID Total, 11 NSCLC patients): 0.0%
- Best overall response (RECIST 1.1): Non-CR/Non-PD, % (NSCLC; BID Total, 11 NSCLC patients): 0.0%
- Best overall response (RECIST 1.1): Not evaluable, % (NSCLC; BID Total, 11 NSCLC patients): 0.0%
- Best overall response (RECIST 1.1): Progressive disease, % (NSCLC; BID Total, 11 NSCLC patients): 0.0%
- Best overall response (RECIST 1.1): Stable disease, % (NSCLC; BID Total, 11 NSCLC patients): 54.5%
- Best overall response (RECIST 1.1): Complete response, % (NSCLC; QD Total, 21 NSCLC patients): 0.0%
- Best overall response (RECIST 1.1): Non-CR/Non-PD, % (NSCLC; QD Total, 21 NSCLC patients): 0.0%
- Best overall response (RECIST 1.1): Not evaluable, % (NSCLC; QD Total, 21 NSCLC patients): 38.1%
- Best overall response (RECIST 1.1): Partial response, % (NSCLC; QD Total, 21 NSCLC patients): 28.6%
- Best overall response (RECIST 1.1): Progressive disease, % (NSCLC; QD Total, 21 NSCLC patients): 4.8%
- Best overall response (RECIST 1.1): Stable disease, % (NSCLC; QD Total, 21 NSCLC patients): 28.6%
- median duration of response (Kaplan Meier estimates) (NSCLC; all treated patients with NSCLC): 6.9 months
